19 compounds from patent publication US20250034136A1 (Nimbus Wadjet, Inc., priority 2023, published 2025) can be followed below.

In test [1] the target is WRN (BV08), human Werner helicase (Uniprot Q14191, amino acids 517-1235 with L1074F point mutation) (Homo sapiens (Human), UniProt Q14191, L1074F). The test is described as follows: WRN (BV08) ADP-Glo assay. It is filed as biochemical. The settings on record: class symbols A-E, read-out: ADP-Glo_hWRN_IC50.
Test [2] deals with p21 induction in HCT116 cells. The test is described as follows: p21 induction in HCT116 cells. The format is cell-based. The settings on record: Homo sapiens, HCT-116, 24 h, HCT116 cells, 24 h compound incubation; read-out: P21_EC50. Put shortly: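 EC50 from non-linear curve fit of p21 immunofluorescence (800 nm), with GAPDH (700 nm) read alongside. DMSO and a reference WRN inhibitor served as low and high controls. Cells (2,000/well) got 11 compound concentrations in duplicate for 24 h at 37 °C.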

Chain of WRN (BV08), human Werner helicase (Uniprot Q14191, amino acids 517-1235 with L1074F point mutation) (Q14191 other isoform, or with tags, fused parts or gaps L1074F (already in the parent)): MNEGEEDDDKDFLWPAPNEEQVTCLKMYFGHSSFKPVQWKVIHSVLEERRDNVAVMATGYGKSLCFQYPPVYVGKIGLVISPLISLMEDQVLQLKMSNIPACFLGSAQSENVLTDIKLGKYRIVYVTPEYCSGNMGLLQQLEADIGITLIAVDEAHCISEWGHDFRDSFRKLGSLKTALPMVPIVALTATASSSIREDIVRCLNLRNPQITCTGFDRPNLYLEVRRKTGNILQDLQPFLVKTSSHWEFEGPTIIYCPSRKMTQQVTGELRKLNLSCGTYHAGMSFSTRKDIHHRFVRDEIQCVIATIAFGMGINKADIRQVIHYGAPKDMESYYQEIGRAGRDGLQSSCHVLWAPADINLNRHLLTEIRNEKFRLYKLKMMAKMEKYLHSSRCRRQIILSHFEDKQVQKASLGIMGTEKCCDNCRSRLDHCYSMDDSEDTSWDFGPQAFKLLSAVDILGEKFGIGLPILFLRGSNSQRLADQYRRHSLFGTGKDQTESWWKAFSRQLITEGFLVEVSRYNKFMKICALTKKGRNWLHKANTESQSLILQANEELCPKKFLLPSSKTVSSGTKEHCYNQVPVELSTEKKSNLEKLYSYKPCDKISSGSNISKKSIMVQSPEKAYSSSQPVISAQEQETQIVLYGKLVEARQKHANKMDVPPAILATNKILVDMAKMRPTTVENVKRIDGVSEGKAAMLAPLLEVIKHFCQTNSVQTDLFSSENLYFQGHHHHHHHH

Turning to `CCc1c(N2CCN(C(=O)c3ncnc(C)c3O)CC2)c(=O)c2nc(N3CC(F)(F)C3)cnc2n1CC(=O)Nc1ccc(C(F)(F)F)cc1Cl` [I-160, N-[2-chloro-4-(trifluoromethyl)phenyl]-2-[2-(3,3-difluoroazetidin-1-yl)-6-ethyl-7-[4-(5-hydroxy-6-methylpyrimidine-4-carbonyl)piperazin-1-yl]-8-oxo-5H,8H-pyrido[2,3-b]pyrazin-5-yl]acetamide], the IC50 in test [1] is 5 to 50 nM. The EC50 in test [2] is > 5000 nM.

Consider `CCc1c(N2CCN(C(=O)c3ncnc(C)c3O)CC2)c(=O)c2nc(NC3CCC3)cnc2n1CC(=O)Nc1ccc(C(F)(F)F)cc1Cl` [I-161, N-[2-chloro-4-(trifluoromethyl)phenyl]-2-[2-(cyclobutylamino)-6-ethyl-7-[4-(5-hydroxy-6-methylpyrimidine-4-carbonyl)piperazin-1-yl]-8-oxo-5H,8H-pyrido[2,3-b]pyrazin-5-yl]acetamide], for which the IC50 in test [1] lay in the range of 5 to 50 nM. Moreover, the EC50 in test [2] is 2000 to 5000 nM.

Regarding `CCc1c(N2CCN(C(=O)c3ncnc(C)c3O)CC2)c(=O)c2nc(N3CC4(CC4)C3)cnc2n1CC(=O)Nc1ccc(C(F)(F)F)cc1Cl` [I-162, 2-(2-{5-azaspiro[2.3]hexan-5-yl}-6-ethyl-7-[4-(5-hydroxy-6-methylpyrimidine-4-carbonyl)piperazin-1-yl]-8-oxo-5H,8H-pyrido[2,3-b]pyrazin-5-yl)-N-[2-chloro-4-(trifluoromethyl)phenyl]acetamide], in test [1], the IC50 was in the range of 5 to 50 nM. Further, the EC50 in test [2] is 500 to 2000 nM.

Consider `CCc1c(N2CCN(C(=O)c3ncnc(C)c3O)CC2)c(=O)c2nc(N3CCC4(COC4)C3)cnc2n1CC(=O)Nc1ccc(C(F)(F)F)cc1Cl` [I-163, N-[2-chloro-4-(trifluoromethyl)phenyl]-2-{6-ethyl-7-[4-(5-hydroxy-6-methylpyrimidine-4-carbonyl)piperazin-1-yl]-2-{2-oxa-6-azaspiro[3.4]octan-6-yl}-8-oxo-5H,8H-pyrido[2,3-b]pyrazin-5-yl}acetamide], for which, in test [1], the IC50 fell in the range of 5 to 50 nM. The EC50 in test [2] was > 5000 nM.

As for `CCc1c(N2CCN(C(=O)c3ncnc(C)c3O)CC2)c(=O)c2nc(N3CC(F)C3)cnc2n1CC(=O)Nc1ccc(C(F)(F)F)cc1Cl` [I-164, N-[2-chloro-4-(trifluoromethyl)phenyl]-2-[6-ethyl-2-(3-fluoroazetidin-1-yl)-7-[4-(5-hydroxy-6-methylpyrimidine-4-carbonyl)piperazin-1-yl]-8-oxo-5H,8H-pyrido[2,3-b]pyrazin-5-yl]acetamide], the IC50 in test [1] was in the range of 5 to 50 nM. Besides, the EC50 in test [2] is 2000 to 5000 nM.

As to `CCc1c(N2CCN(C(=O)c3ncnc(C)c3O)CC2)c(=O)c2nc(NC3CC3)cnc2n1CC(=O)Nc1ccc(C(F)(F)F)cc1Cl` [I-165, N-[2-chloro-4-(trifluoromethyl)phenyl]-2-[2-(cyclopropylamino)-6-ethyl-7-[4-(5-hydroxy-6-methylpyrimidine-4-carbonyl)piperazin-1-yl]-8-oxo-5H,8H-pyrido[2,3-b]pyrazin-5-yl]acetamide], the IC50 in test [1] was in the range of 5 to 50 nM. The EC50 in test [2] lay in the range of 500 to 2000 nM.

Turning to `CCc1c(N2CCN(C(=O)c3ncnc(C)c3O)CC2)c(=O)c2nc(C=C3CCCC3)cnc2n1CC(=O)Nc1ccc(C(F)(F)F)cc1Cl` [I-166, N-[2-chloro-4-(trifluoromethyl)phenyl]-2-[2-(cyclopentylidenemethyl)-6-ethyl-7-[4-(5-hydroxy-6-methylpyrimidine-4-carbonyl)piperazin-1-yl]-8-oxo-5H,8H-pyrido[2,3-b]pyrazin-5-yl]acetamide], in test [1], the IC50 is ≤ 5 nM. Further, the EC50 in test [2] is 500 to 2000 nM.

`CCc1c(N2CCN(C(=O)c3ncnc(C)c3O)CC2)c(=O)c2nc(N(C)CC(F)F)cnc2n1CC(=O)Nc1ccc(C(F)(F)F)cc1Cl` [I-167, N-[2-chloro-4-(trifluoromethyl)phenyl]-2-{2-[(2,2-difluoroethyl)(methyl)amino]-6-ethyl-7-[4-(5-hydroxy-6-methylpyrimidine-4-carbonyl)piperazin-1-yl]-8-oxo-5H,8H-pyrido[2,3-b]pyrazin-5-yl}acetamide]: the IC50 in test [1] lay in the range of 5 to 50 nM. The EC50 in test [2] was in the range of 2000 to 5000 nM.

In the case of `CCc1c(N2CC3COCC(C2)N3C(=O)c2ncnc(C)c2O)c(=O)c2nc(N(C)C)cnc2n1CC(=O)Nc1ccc(C(F)(F)F)cc1Cl` [I-168, N-[2-chloro-4-(trifluoromethyl)phenyl]-2-[2-(dimethylamino)-6-ethyl-7-[9-(5-hydroxy-6-methylpyrimidine-4-carbonyl)-3-oxa-7,9-diazabicyclo[3.3.1]nonan-7-yl]-8-oxo-5H,8H-pyrido[2,3-b]pyrazin-5-yl]acetamide], in test [1], the IC50 was in the range of 100 to 500 nM. Further, in test [2], the EC50 was > 5000 nM.

As for `CCc1c(N2CCN(C(=O)c3ncnc(C)c3O)CC2)c(=O)c2nc(N3CCC34CCC4)cnc2n1CC(=O)Nc1ccc(C(F)(F)F)cc1Cl` [I-170, 2-(2-{1-azaspiro[3.3]heptan-1-yl}-6-ethyl-7-[4-(5-hydroxy-6-methylpyrimidine-4-carbonyl)piperazin-1-yl]-8-oxo-5H,8H-pyrido[2,3-b]pyrazin-5-yl)-N-[2-chloro-4-(trifluoromethyl)phenyl]acetamide], the IC50 in test [1] lay within 5 to 50 nM. In addition, the EC50 in test [2] is < 500 nM.

Consider `CCc1c(N2CCN(C(=O)c3ncnc(C)c3O)CC2)c(=O)c2nc(C(C)(C)F)cnc2n1CC(=O)Nc1ccc(C(F)(F)F)cc1Cl` [I-174, N-[2-chloro-4-(trifluoromethyl)phenyl]-2-[6-ethyl-2-(2-fluoropropan-2-yl)-7-[4-(5-hydroxy-6-methylpyrimidine-4-carbonyl)piperazin-1-yl]-8-oxo-5H,8H-pyrido[2,3-b]pyrazin-5-yl]acetamide], for which the IC50 in test [1] is 5 to 50 nM. Also, in test [2], the EC50 fell in the range of 2000 to 5000 nM.

With `CCc1c(N2CCN(C(=O)c3ncnc(C)c3O)CC2)c(=O)c2nc(N(C)C(C)C)cnc2n1CC(=O)Nc1ccc(C(F)(F)F)cc1Cl` [I-175, N-[2-chloro-4-(trifluoromethyl)phenyl]-2-{6-ethyl-7-[4-(5-hydroxy-6-methylpyrimidine-4-carbonyl)piperazin-1-yl]-2-[methyl(propan-2-yl)amino]-8-oxo-5H,8H-pyrido[2,3-b]pyrazin-5-yl}acetamide], the IC50 in test [1] was in the range of 5 to 50 nM. For the same compound, in test [2], the EC50 was in the range of 2000 to 5000 nM.

As for `CCc1c(N2CCN(C(=O)c3ncnc(C)c3O)C3(CC3)C2)c(=O)c2nc(N(C)C)cnc2n1CC(=O)Nc1ccc(C(F)(F)F)cc1Cl` [I-176, N-[2-chloro-4-(trifluoromethyl)phenyl]-2-[2-(dimethylamino)-6-ethyl-7-[4-(5-hydroxy-6-methylpyrimidine-4-carbonyl)-4,7-diazaspiro[2.5]octan-7-yl]-8-oxo-5H,8H-pyrido[2,3-b]pyrazin-5-yl]acetamide], the IC50 in test [1] lay in the range of 50 to 100 nM. The EC50 in test [2] was > 5000 nM.

Regarding `CCc1c(N2CCN(C(=O)c3ncnc(C)c3O)CC2)c(=O)c2nc(N3CCC(F)(F)C3)cnc2n1CC(=O)Nc1ccc(C(F)(F)F)cc1Cl` [I-177, N-[2-chloro-4-(trifluoromethyl)phenyl]-2-[2-(3,3-difluoropyrrolidin-1-yl)-6-ethyl-7-[4-(5-hydroxy-6-methylpyrimidine-4-carbonyl)piperazin-1-yl]-8-oxo-5H,8H-pyrido[2,3-b]pyrazin-5-yl]acetamide], the IC50 in test [1] was in the range of 5 to 50 nM. In addition, the EC50 in test [2] is > 5000 nM.

For the compound `CCc1c(N2CCN(C(=O)c3ncnc(C)c3O)C(CO)C2)c(=O)c2nc(N(C)C)cnc2n1CC(=O)Nc1ccc(C(F)(F)F)cc1Cl` (centres unmarked) [I-178, N-[2-chloro-4-(trifluoromethyl)phenyl]-2-[2-(dimethylamino)-6-ethyl-7-[4-(5-hydroxy-6-methylpyrimidine-4-carbonyl)-3-(hydroxymethyl)piperazin-1-yl]-8-oxo-5H,8H-pyrido[2,3-b]pyrazin-5-yl]acetamide], in test [1], the IC50 fell in the range of 5 to 50 nM. Moreover, the EC50 in test [2] is > 5000 nM.

In the case of `CCc1c(N2CCN(C(=O)c3ncnc(C)c3O)CC2)c(=O)c2nc(N(C3CC3)C3CC3)cnc2n1CC(=O)Nc1ccc(C(F)(F)F)cc1Cl` [I-179, N-[2-chloro-4-(trifluoromethyl)phenyl]-2-[2-(dicyclopropylamino)-6-ethyl-7-[4-(5-hydroxy-6-methylpyrimidine-4-carbonyl)piperazin-1-yl]-8-oxo-5H,8H-pyrido[2,3-b]pyrazin-5-yl]acetamide], the IC50 in test [1] was in the range of 5 to 50 nM. Further, the EC50 in test [2] is 2000 to 5000 nM.

Turning to `CCc1c(N2CCN(C(=O)c3ncnc(C)c3O)CC2)c(=O)c2nc(C=C3CC(C)(O)C3)cnc2n1CC(=O)Nc1ccc(C(F)(F)F)cc1Cl` (centres unmarked) [I-180, N-[2-chloro-4-(trifluoromethyl)phenyl]-2-{6-ethyl-2-[(3-hydroxy-3-methylcyclobutylidene)methyl]-7-[4-(5-hydroxy-6-methylpyrimidine-4-carbonyl)piperazin-1-yl]-8-oxo-5H,8H-pyrido[2,3-b]pyrazin-5-yl}acetamide], the IC50 in test [1] is 5 to 50 nM. Further, the EC50 in test [2] lay within 500 to 2000 nM.

As to `CCc1c(N2CCN(C(=O)c3ncnc(C)c3O)[C@H]3CC[C@@H]32)c(=O)c2nc(OC3CCC3)cnc2n1CC(=O)Nc1ccc(C(F)(F)F)cc1Cl` [I-181, N-[2-chloro-4-(trifluoromethyl)phenyl]-2-{2-cyclobutoxy-6-ethyl-7-[(1S,6S)-5-(5-hydroxy-6-methylpyrimidine-4-carbonyl)-2,5-diazabicyclo[4.2.0]octan-2-yl]-8-oxo-5H,8H-pyrido[2,3-b]pyrazin-5-yl}acetamide], the IC50 in test [1] is 5 to 50 nM. Moreover, the EC50 in test [2] was < 500 nM.

In the case of `CCc1c(N2CCN(C(=O)c3ncnc(C)c3O)[C@H]3CC[C@@H]32)c(=O)c2nc(OC)cnc2n1CC(=O)Nc1ccc(C(F)(F)F)cc1Cl` [I-182, N-[2-chloro-4-(trifluoromethyl)phenyl]-2-{6-ethyl-7-[(1S,6S)-5-(5-hydroxy-6-methylpyrimidine-4-carbonyl)-2,5-diazabicyclo[4.2.0]octan-2-yl]-2-methoxy-8-oxo-5H,8H-pyrido[2,3-b]pyrazin-5-yl} acetamide], in test [1], the IC50 was ≤ 5 nM. The EC50 in test [2] was < 500 nM.
